In patent US20160213632A1, “Memory Performance and Prevention and Treatment of Neurodegenerative Diseases” (Max Planck Florida Institute for Neuroscience, priority 2015, published 2016):
“Also recorded” adds a separate entry of the source.

Experiments:
[1] = tested on: CA1 neurons; test: Dendritic spine density in cultured (organotypic) hippocampal slices treated with Aβ; assay type: cell-based, mice
Experimental: Organotypic hippocampal slice cultures (300 μm thick) were prepared from mice at postnatal day 6 or 7. After 1 week in culture, slices were transfected using biolistic gene transfer. Aβ stock solution (200 μM) was prepared in 1% NH4OH as a vehicle and added directly to the culture medium at a final concentration of 1 μM. FTI-277 was dissolved in DMSO and added directly to the culture medium at a final concentration of 10 μM.

[2] = tested on: ERK1/2; test: Western blotting for active/phosphorylated ERK1/2 in AD model mice; assay type: in vivo; details: daily IP injections for 3 consecutive days
Experimental: (§1) As a model for AD, male hAPPJ20 transgenic mice were used (Mucke et al., 2000). Non-transgenic male littermates were used for controls.
Protein expression and/or phosphorylation was evaluated by standard western blotting protocol using the following antibodies: goat anti-centaurin-α1 (Abcam; 1:500); mouse anti-β-actin (Sigma, 1:2000); mouse 6E10 (Covance, 1:1000); rabbit anti-phosphoERK1/2 (Cell Signaling Technologies, 1:1000); mouse anti-ERK1/2 (Cell Signaling Technologies, 1:1000); mouse anti-Ras (Pierce, 1:1000); rabbit anti-Hsp10 (Cell Signaling Technologies, 1:1000); rabbit anti-Hsp60 (Cell Signaling Technologies, 1:1000); and HRP-labeled anti-mouse, anti-goat, or anti-rabbit IgG antibodies (BioRad; 1:2000).

[3] = tested on: Ras; test: Active Ras pull-down assay in hippocampus of AD model (APP) mice; assay type: in vivo; details: hippocampus of 6 months old APP mice; daily IP injections for 3 consecutive days
Experimental: as §1
The level of active Ras in hippocampal lysates from CentA1 KO mice and their wild type litter mates was measured with an active Ras pull-down and detection kit and following the instructions from manufacturer (Thermo Scientific). Western blotting was conducted with mouse anti-Ras antibody.

[4] = tested on: organotypic slices; details: organotypic slices (Szatmari et al, 2013); cited from earlier work

Structure (SMILES) | dendritic spine density in CA1 neurons exposed to Aβ ([1]; cultured hippocampal slices, vehicle or Aβ in presence or absence of FTI-276 (FIG. 6D)) | active/phosphorylated ERK1/2 (downstream of Ras) [2] | Ras activity (pull-down assay) [3] | Aβ-induced decreased mEPSC frequency [4] | Aβ-induced spine loss ([1]; organotypic slices, FTI-277 10 μM, Aβ 1 μM)
CSCC[C@H](NC(=O)c1ccc(NC[C@@H](N)CS)cc1-c1ccccc1)C(=O)O [FTI-276] | restored | reduces the activity of signaling pathways downstream of Ras; also recorded: reduced phosphorylation/activation of ERK1/2 | reduced; also recorded: prevented Ras hyperactivation | – | –
COC(=O)[C@H](CCSC)NC(=O)c1ccc(NC[C@@H](N)CS)cc1-c1ccccc1 [FTI-277] | – | – | – | prevented | prevented
